Where two headings read alike, the source gives them in different places.
Legend:
LDL-C [1] = conditions: monotherapy, ezetimibe 10 mg; cited from earlier work
obese female Zucker rats = conditions: cited from earlier work
[2] = test system: hypercholesterolemic patients; assay: 8-week double-blind placebo-controlled phase 2 study of gemcabene added to a stable statin dose: LDL-C; format: in vivo, human; conditions: on stable statin, placebo reduction 7.9%, p<0.01
Protocol: An 8-week, double-blind, placebo-controlled, randomized, multicenter, phase 2 study in hypercholesterolemic patients on a stable dose of statin (on statin therapy for at least the previous 3 months) was conducted to evaluate the efficacy of gemcabene in the further reduction of LDL-C in these patients.
A total of 66 hypercholesterolemic patients were treated in this study: 22 randomized to gemcabene 900 mg, 20 randomized to gemcabene 300 mg, and 24 randomized to placebo.
Patients included in the study were men and women ≥18 and ≤65 years of age with hypercholesterolemia and an LDL-C level at screening of ≥130 mg/dL while on a stable (3-months) dose of a statin. Patients were required to maintain their current dose of statin throughout the course of the study. […]
Percent change from base line was calculated as follows: Percent Change From Baseline=[(final value−baseline value)/baseline value]×100%. […]

[3] = test system: hypercholesterolemic patients; assay: Framingham Risk Score, baseline vs week 8, in the same phase 2 study; format: in vivo, human; conditions: 300 mg and 900 mg QD
Protocol: As used herein, references to 10-year risk are calculated using the Framingham point scores as provided in Tables 1 and 2, for men and women respectively. The patients' Framingham Risk Score was calculated at baseline. The Framingham risk score calculation takes into account: age, gender, systolic blood pressure level (+/−treatment), HDL cholesterol level, and smoker status. […] Significance was determined using the SAS Proc Univariate which provides p values from the student's paired t-test and the Wilcoxon Signed Rank test.

LDL-C [4] = conditions: cited from earlier work
LDL-C [5] = conditions: lovastatin 40 mg twice daily; cited from earlier work

Which LDL-C lowered (LDL-C [1]) does the source give for O=C1[C@H](CC[C@H](O)c2ccc(F)cc2)[C@@H](c2ccc(O)cc2)N1c1ccc(F)cc1 [ezetimibe] here?
The LDL-C lowered was 16%.

Which HDL-C (obese female Zucker rats) does the source give for CC(C)(CCCCCC(O)CCCCCC(C)(C)C(=O)O)C(=O)O [ESP 55016] here?
Its HDL-C is “raising”.

And the non-HDL-C (obese female Zucker rats)?
Its non-HDL-C is “effective in lowering”.

What about the triglyceride levels (obese female Zucker rats) of the same molecule?
The triglyceride levels was “decreasing”.

Which results are given for CC(C)(CCCCOCCCCC(C)(C)C(=O)O)C(=O)O [gemcabene, 6,6′-oxybis-(2,2′-dimethylhexanoic acid)]?
LDL-C lowered from baseline at Week 8, median ([2]; 300 mg per day): 24.8%; LDL-C lowered from baseline at Week 8, median ([2]; 900 mg per day): 31.0%; Framingham Risk Score compared with statin treatment alone [3]: significantly reduced; decrease in LDL-C beyond atorvastatin monotherapy (LDL-C [4]; 300 mg gemcabene with atorvastatin (aggregated over 10, 40 and 80 mg)): 3.8%; decrease in LDL-C beyond atorvastatin monotherapy (LDL-C [4]; 600 mg gemcabene with atorvastatin (aggregated over 10, 40 and 80 mg)): 6.1%; decrease in LDL-C beyond atorvastatin monotherapy (LDL-C [4]; 900 mg gemcabene with atorvastatin (aggregated over 10, 40 and 80 mg)): 7.4%

Which LDL-C lowered (LDL-C [5]) does the source give for CC[C@H](C)C(=O)O[C@H]1C[C@@H](C)C=C2C=C[C@H](C)[C@H](CC[C@@H]3C[C@@H](O)CC(=O)O3)[C@H]21 [lovastatin] here?
Its LDL-C lowered is 35.5%.
